Experimental data reported in US5242684A, “Antimicrobial, low toxicity, non-irritating composition comprising a blend of bis-quaternary ammonium compounds coprecipitated with a copolymer of vinylpyrrolidone and an acrylamido or vinyl quaternary ammonium monomer” (ISP Investments Inc., priority 1991, dated 1993).

Legend:
[1] = LD50 toxicity (on rats); conditions: rat, in vivo
[2] = system: E.Coli; experiment: Minimum Inhibitory Concentration (MIC) against E.Coli; type: cell-based; conditions: Gram negative, coprecipitates at 50:50 wt. ratio with GAFQUAT HS-100, unit assumed
Text: The antimicrobial activity of the products herein are represented by their Minimum Inhibitory Concentration (MIC) against E.Coli, a Gram negative microorganism. Their effect on skin is indicated by an Irritation Index. These properties are presented in the Table below for the individual compounds in blend D and the invention composition of several D, H and L blend compositions coprecipitated in a 50:50 wt. ratio with GAFQUAT® HS-100.

SMILES	LD50 [1] [mg/kg]	MIC [2] [µg/mL]
CCCCCCCCCCCCCC[N+](C)(C)CCOCCOCC[N+](C)(C)CCCCCCCCCCCC [B compound in D blend]	700	50
CCCCCCCCCCCC[N+](C)(C)CCOCCOCC[N+](C)(C)CCCCCCCCCCCC [A compound in D blend]	300	100
CCCCCCCCCCCCCC[N+](C)(C)CCOCCOCC[N+](C)(C)CCCCCCCCCCCCCC [C compound in D blend]	950	125
